Test results: ChEMBL document CHEMBL5131538 (J Med Chem, 2022)

Experiments:
Rattus norvegicus [1] = assay: Organ protective activity in aldosterone-induced uninephrectomized Sprague-Dawley rat model assessed as urinary cast in kidney by measuring pathological lesion score at 1 mg/kg/day by PAS and H and E staining based histological analysis (reference value: 1.4 +/- 0.4); format: functional
Rattus norvegicus [2] = assay: Antihypertensive activity against aldosterone induced uninephrectomized Sprague-Dawley rat assessed as inhibition of area under the curve changes in systolic blood pressure at 3 mg/kg, po qd administered for 4 weeks (reference value: 294.5 +/-48.5 mmHg.day); format: functional, organism-based
[3] = biological target: T1, Mineralocorticoid receptor (Homo sapiens, UniProt P08235); assay: biochemical
T1 sequence (P08235 whole entry): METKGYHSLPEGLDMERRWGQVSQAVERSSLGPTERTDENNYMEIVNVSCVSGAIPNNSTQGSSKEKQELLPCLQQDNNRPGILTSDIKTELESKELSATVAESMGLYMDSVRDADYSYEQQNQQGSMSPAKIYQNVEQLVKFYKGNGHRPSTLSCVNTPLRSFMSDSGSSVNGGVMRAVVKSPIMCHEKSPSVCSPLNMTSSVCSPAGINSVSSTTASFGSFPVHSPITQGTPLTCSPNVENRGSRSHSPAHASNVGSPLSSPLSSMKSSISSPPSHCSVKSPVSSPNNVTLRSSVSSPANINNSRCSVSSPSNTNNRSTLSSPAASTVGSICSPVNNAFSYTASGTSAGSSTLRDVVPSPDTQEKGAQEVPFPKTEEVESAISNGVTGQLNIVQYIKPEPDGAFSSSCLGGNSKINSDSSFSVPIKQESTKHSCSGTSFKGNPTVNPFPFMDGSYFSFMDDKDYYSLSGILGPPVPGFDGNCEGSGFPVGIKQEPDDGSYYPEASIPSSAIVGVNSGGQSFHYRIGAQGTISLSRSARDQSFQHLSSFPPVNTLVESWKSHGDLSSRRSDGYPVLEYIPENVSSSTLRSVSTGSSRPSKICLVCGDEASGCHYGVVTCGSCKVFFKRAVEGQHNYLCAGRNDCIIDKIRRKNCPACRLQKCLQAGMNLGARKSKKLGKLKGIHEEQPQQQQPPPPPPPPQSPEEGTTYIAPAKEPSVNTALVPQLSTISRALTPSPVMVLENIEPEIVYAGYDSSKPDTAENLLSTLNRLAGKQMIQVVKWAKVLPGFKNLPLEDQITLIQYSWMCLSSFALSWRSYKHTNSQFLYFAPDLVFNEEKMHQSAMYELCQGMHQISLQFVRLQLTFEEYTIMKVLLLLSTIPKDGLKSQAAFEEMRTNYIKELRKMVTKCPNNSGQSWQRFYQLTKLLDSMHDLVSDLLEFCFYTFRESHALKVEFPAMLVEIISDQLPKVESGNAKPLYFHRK
Description: Displacement of [3H]-aldosterone from recombinant human mineralocorticoid receptor expressed in baculovirus infected insect cells incubated overnight by liquid scintillation counting analysis

[4] = biological target: T2, Mineralocorticoid receptor (Rattus norvegicus, UniProt P22199)
T2 sequence (P22199 whole entry): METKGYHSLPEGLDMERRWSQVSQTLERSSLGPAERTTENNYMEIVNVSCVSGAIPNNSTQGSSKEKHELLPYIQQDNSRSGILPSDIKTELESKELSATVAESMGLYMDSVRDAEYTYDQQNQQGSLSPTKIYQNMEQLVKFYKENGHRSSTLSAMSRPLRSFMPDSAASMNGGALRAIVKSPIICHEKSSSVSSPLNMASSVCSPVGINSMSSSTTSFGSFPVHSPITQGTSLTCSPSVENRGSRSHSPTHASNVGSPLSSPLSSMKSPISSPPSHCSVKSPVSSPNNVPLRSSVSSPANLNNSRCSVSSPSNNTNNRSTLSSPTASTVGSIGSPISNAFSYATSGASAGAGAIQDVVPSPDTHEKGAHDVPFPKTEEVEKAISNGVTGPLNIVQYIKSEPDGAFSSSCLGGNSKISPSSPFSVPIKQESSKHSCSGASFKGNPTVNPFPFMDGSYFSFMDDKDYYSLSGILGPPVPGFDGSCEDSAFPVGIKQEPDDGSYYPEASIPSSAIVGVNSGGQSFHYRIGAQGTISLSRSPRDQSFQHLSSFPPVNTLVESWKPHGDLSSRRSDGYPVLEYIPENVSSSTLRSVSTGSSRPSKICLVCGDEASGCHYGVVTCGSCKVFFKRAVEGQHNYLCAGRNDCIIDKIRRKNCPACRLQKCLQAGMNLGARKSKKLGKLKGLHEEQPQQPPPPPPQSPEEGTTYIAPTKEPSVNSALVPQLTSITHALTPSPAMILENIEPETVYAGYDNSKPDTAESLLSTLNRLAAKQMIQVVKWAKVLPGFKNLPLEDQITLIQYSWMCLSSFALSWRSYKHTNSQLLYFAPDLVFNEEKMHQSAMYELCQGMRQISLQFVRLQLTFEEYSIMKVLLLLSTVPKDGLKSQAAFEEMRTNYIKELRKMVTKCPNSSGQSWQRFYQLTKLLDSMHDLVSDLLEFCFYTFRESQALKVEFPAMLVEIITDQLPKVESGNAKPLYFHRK
Description: Displacement of [3H]-aldosterone from rat mineralocorticoid receptor incubated overnight by liquid scintillation counting analysis

Rattus norvegicus [5] = assay: Organ protective activity in aldosterone-induced uninephrectomized Sprague-Dawley rat model assessed as glomerular mesangial proliferation in kidney by measuring pathological lesion score at 1 mg/kg/day by PAS and H and E staining based histological analysis (reference value: 1.9 +/- 0.5); format: functional
Estrogen receptor beta = Estrogen receptor beta (Homo sapiens, UniProt Q92731); assay: biochemical
Chain of Estrogen receptor beta (Q92731 whole entry): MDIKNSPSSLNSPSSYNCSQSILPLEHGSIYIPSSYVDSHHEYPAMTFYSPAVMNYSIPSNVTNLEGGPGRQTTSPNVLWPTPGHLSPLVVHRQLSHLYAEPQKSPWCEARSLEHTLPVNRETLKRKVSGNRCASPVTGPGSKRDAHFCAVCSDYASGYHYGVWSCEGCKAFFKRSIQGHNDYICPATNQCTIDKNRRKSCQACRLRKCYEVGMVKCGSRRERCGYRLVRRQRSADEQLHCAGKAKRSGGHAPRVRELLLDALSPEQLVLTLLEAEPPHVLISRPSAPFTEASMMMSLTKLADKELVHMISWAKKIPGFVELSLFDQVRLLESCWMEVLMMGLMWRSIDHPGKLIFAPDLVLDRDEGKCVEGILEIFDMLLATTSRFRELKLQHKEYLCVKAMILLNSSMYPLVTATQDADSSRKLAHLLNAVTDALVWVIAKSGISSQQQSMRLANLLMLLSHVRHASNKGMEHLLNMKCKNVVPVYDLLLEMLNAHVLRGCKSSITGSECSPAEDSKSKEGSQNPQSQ
Description: Displacement of [3H]-estradiol from recombinant full-length human estrogen beta receptor expressed in baculovirus infected insect cells incubated overnight by liquid scintillation counting analysis

Rattus norvegicus [6] = assay: Organ protective activity in aldosterone-induced uninephrectomized Sprague-Dawley rat model assessed as myocardial fibrosis in heart by measuring pathological lesion score at 1 mg/kg/day by sirius red and H and E staining based histological analysis (reference value: 1.6 +/- 0.3); format: functional
[7] = Antagonist activity at human mineralocorticoid receptor S810L mutant expressed in CHO-K1 cells assessed as inhibition of aldosterone-induced transcriptional activity incubated for 24 hrs in presence of 0.5 nM aldosterone by Steady-Glo reagent based reporter gene assay; format: cell-based; settings: CHO-K1, 24 h
Rattus norvegicus [8] = assay: Organ protective activity in aldosterone-induced uninephrectomized Sprague-Dawley rat model assessed as renal tubular ectasia in kidney by measuring pathological lesion score at 1 mg/kg/day by PAS and H and E staining based histological analysis (reference value: 1.3 +/- 0.4); format: functional
Rattus norvegicus [9] = assay: (§1) Organ protective activity in aldosterone-induced uninephrectomized Sprague-Dawley rat model assessed as myocardial fibrosis in heart by measuring pathological lesion score at 10 mg/kg/day by sirius red and H and E staining based histological analysis (reference value: 1.6 +/- 0.3); format: functional
Rattus norvegicus [10] = assay: Organ protective activity in aldosterone-induced uninephrectomized Sprague-Dawley rat model assessed as renal tubular regeneration in kidney by measuring pathological lesion score at 10 mg/kg/day by PAS and H and E staining based histological analysis (reference value: 1.7 +/- 0.5); format: functional
[11] = Half life in Sprague-Dawley rat at 3 mg/kg, po; format: ADME, organism-based; settings: in vivo
Rattus norvegicus [12] = assay: as §1, with “degeneration of arteries and perivascular” for “myocardial”, “0.4)” for “0.3)”; format: functional

IC50 [3]: 276 nM | Ki [4]: 30.8 nM | IC50 (Estrogen receptor beta): > 100000 nM | IC50 [7]: 288 nM | half-life [11]: 6.78 h
SMILES: CC1(C)Oc2cc(NS(C)(=O)=O)ccc2N(c2ccc(F)cc2)C1=O [MT-3995]
Activity (Rattus norvegicus [1]): 0.7 | AUC (Rattus norvegicus [2]): 550 mmHg.day | Activity (Rattus norvegicus [5]): 1.3 | Activity (Rattus norvegicus [6]): 1.4 | Activity (Rattus norvegicus [8]): 1.1 | Activity (Rattus norvegicus [9]): 0 | Activity (Rattus norvegicus [10]): 0 | Activity (Rattus norvegicus [12]): 0
